Results taken from patent US9937133B2, “Treatment of fibrosis” (UCL BUSINESS PLC, priority 2014, dated 2018).
Read-outs that look alike come from different tables or passages of the source.

Experiments:
Assay type in all cases: cell-based, human
[1] = test system: F-PemI and F-PemU fibroblasts; assay: Proliferation of OcMMP fibroblasts after ALDH inhibition
Procedure: The proliferative capacity of F-PemI, F-PemU and F-C fibroblasts was also assessed. […] The proliferative capacities of F-PemI and F-PemU were similar (see FIG. 4A).
To find out whether ALDH1A3 also mediates this anti-proliferative phenotype we monitored the proliferation of F-PemI, F-PemU and F-C fibroblasts after addition of DEAB or disulfiram.

F-C fibroblasts = assay: Matrix contraction by control fibroblasts after ALDH inhibition
Source text: (§1) Next the ability of F-PemI and F-PemU fibroblasts to organise matrix through matrix contraction was investigated. […] This diminished contractile profile was similar in F-PemI and F-PemU fibroblasts.
(§2) To find out whether ALDH1A3 was also contributing to this phenotypic contractility we looked at the contractile profiles of F-PemI, F-PemU and F-C fibroblasts after DEAB or disulfiram ALDH inhibition.

[2] = test system: F-PemI and F-PemU fibroblasts; assay: Matrix contraction by OcMMP fibroblasts after ALDH inhibition
Source text: as §1, §2

[3] = test system: F-PemI and F-PemU fibroblasts; assay: Alpha-smooth muscle actin alignment under a stressed matrix
Source text: Finally to have an indication of the differentiation capacity of F-PemI and F-PemU fibroblasts, their expression and alignment of alpha-smooth muscle actin under a stressed matrix was investigated. F-PemI and F-PemU lack the ability to align their alpha-smooth muscle actin into stress fibers when compared to F-C fibroblasts. The diminished alignment of alpha-smooth muscle actin was similar in both F-PemI and F-PemU fibroblasts.
To elucidate whether ALDH1A3 is contributing to this impaired alignment of alpha-smooth muscle actin in F-PemI and F-PemU fibroblasts, their alpha-smooth muscle actin alignment was imaged after being treated with DEAB and disulfiram.

[4] = test system: F-PemI and F-PemU fibroblasts; assay: Collagen production of OcMMP fibroblasts after ALDH inhibition (collagen type I competitive ELISA)
Procedure: To investigate whether there was differential matrix production in OcMMP, primary conjunctival fibroblasts explanted from conjunctival tissue samples from OcMMP patients with (F-PemI) and without (F-PemU) and control (F-C) patients were analysed for their matrix production and secretion (see FIG. 2A).
To ascertain whether this enhanced collagen production was mediated by ALDH1A3, the collagen production profiles of F-PemI, F-PemU and F-C fibroblasts were assessed after ALDH inhibition with DEAB or disulfiram (see FIGS. 2B to 2E, where “+” and “−” indicate the presence or absence of DEAB/disulfiram respectively).
A competitive ELISA (MD Bioproducts, Zurich, Germany) method was used to quantify the matrix production from a monolayer of F-C, F-PemU and F-PemI fibroblasts. The competitive assay is a colormetric based immunoassay utilises a biotinylated polyclonal antibody to Collagen Type I and purified human collagen type I as an antigen. […]
Each experiment was carried out per manufacturer's instructions and performed with at least 4 experimental repeats and 3 biological repeats. […] Another method that has been noted for quantifying the level of collagen production in OcMMP fibroblasts is Q-PCR quantification of collagen type 1 mRNA expression post TGF-β induction (Razzaque et al., 2003, Investigative ophthalmology and visual science, 44: 3417-3423, 1616-1621 and 1998-2003). […]

`CCN(CC)c1ccc(C=O)cc1` [DEAB, 4-(diethylamino)benzaldehyde] was tested. Which “proliferation of F-PemI and F-PemU fibroblasts” value [1] did it give?
The value was “proliferating at a significantly enhanced rate”.

What about the “proliferation of F-PemI and F-PemU fibroblasts” value ([1]; lowest concentration of 10^−7M) of the same compound?
The value was “proliferated at similar level to F-C fibroblasts”.

And the “contractile profile of F-C fibroblasts” value (F-C fibroblasts)?
Its value is “did not have any significant effects”.

And the “contractility of F-PemI and F-PemU fibroblasts” value ([2]; increasing concentrations)?
Its value is “increased the contractility of F-PemI and F-PemU fibroblasts in a dose dependent manner”.

And the “contraction of F-PemI and F-PemU fibroblasts” value ([2]; lowest concentration of 10^−7M)?
Its value is “control cell levels of contraction”.

And the “alignment of alpha-smooth muscle actin in F-PemI and F-PemU fibroblasts” value [3]?
Its value is “markedly improved the alignment”.

And the “F-PemI and F-PemU fibroblast collagen production” value ([4]; 10^−7M)?
Its value is “brought down to control cell levels”.

And the “F-PemI and F-PemU fibroblast collagen production” value ([4]; increasing concentrations)?
Its value is “dose dependent and significant decrease”.
